Assay results as given in PubChem BioAssay (NCI).
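A five-concentration, 48-hour dose response in 96-well plates underlies each endpoint, interpolated linearly between surrounding concentrations. GI50 = concentration required for 50% inhibition of growth. TGI marks complete inhibition of growth.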

Assays:
Test in all cases: growth of human tumour cells (NCI), 48 h
MALME-3M melanoma = test system: MALME-3M melanoma
EKVX NSCLC = test system: EKVX NSCLC
SW-620 colon = test system: SW-620 colon
UACC-257 melanoma = test system: UACC-257 melanoma
786-0 renal = test system: 786-0 renal
KM12 colon = test system: KM12 colon
HL-60(TB) leukemia = test system: HL-60(TB) leukemia
SR leukemia = test system: SR leukemia
SNB-19 CNS = test system: SNB-19 CNS
HOP-62 NSCLC = test system: HOP-62 NSCLC

SMILES	TGI (MALME-3M melanoma) [µM]	TGI (EKVX NSCLC) [µM]	TGI (SW-620 colon) [µM]	TGI (UACC-257 melanoma) [µM]	TGI (786-0 renal) [µM]	TGI (KM12 colon) [µM]	TGI (HL-60(TB) leukemia) [µM]	TGI (SR leukemia) [µM]	TGI (SNB-19 CNS) [µM]	TGI (HOP-62 NSCLC) [µM]	GI50 (MALME-3M melanoma) [µM]	GI50 (HOP-62 NSCLC) [µM]	GI50 (SW-620 colon) [µM]	GI50 (UACC-257 melanoma) [µM]	GI50 (786-0 renal) [µM]	GI50 (KM12 colon) [µM]	GI50 (HL-60(TB) leukemia) [µM]	GI50 (SR leukemia) [µM]	GI50 (SNB-19 CNS) [µM]	GI50 (EKVX NSCLC) [µM]
Cc1cccc(NC(=O)CC#N)c1Cl	> 100	> 100	> 100	> 100	> 100	> 100	> 100	> 100	> 100											
COc1ccc(CC2C3=C(CCCC3)CCN2C)cc1 (configuration not stated)	> 100	> 100	> 100	> 100	> 100	> 100	> 100		> 100	> 100										
CCc1ccc(Nc2cc(C)nc3nc(C)nn23)cc1	> 100		> 100	> 100	> 100	> 100	> 100	> 100	> 100	> 100	69.5	> 100	> 100	> 100	> 100	70.6	> 100	53.1	53.4	
CC(=O)c1ccc(NCN2C(=O)c3ccccc3C2=O)cc1	> 100	> 100	> 100	> 100	> 100	> 100	> 100		> 100	> 100										
Cc1ccc(C2=C(c3ccccc3)C(O)(c3ccc(C)cc3)C(c3ccccc3)=C2c2ccc(C)cc2)cc1	> 100	> 100	> 100	> 100	> 100	> 100	> 100		> 100	> 100										
O=C([O-])c1ccccc1Nc1ccccc1[O-].[Ni+3].[OH3+].[OH3+].[OH3+]	> 100	> 100	> 100	> 100	> 100	> 100		> 100	> 100	> 100	> 100	> 100	> 100	> 100	> 100	> 100		> 100	> 100	> 100
COC(=O)c1ccc(C2SCC(=O)N2NC(=O)C(O)c2ccccc2)cc1 (configuration not stated)	> 100	> 100	> 100	> 100	> 100	> 100			> 100	> 100	> 100	> 100	> 100	> 100	> 100	> 100			> 100	> 100
CCN(CC)CCOc1ccc(C(=C2CCCCC2)c2ccc(OCCN(CC)CC)cc2)cc1	3.13	3.36	2.5	3.32	2.69	2.57	2.56		4.03	3.27										
c1ccc(C2N3CCCCC3[C@@H]3c4[nH]c5ccccc5c4CCN23)cc1 (some centres not stated)	> 100	> 100	> 100	> 100	> 100		48.8		> 100	> 100										
O=c1[nH]c(/C=C(\O)c2ccncc2)nc2ccccc12	> 100	> 100	> 100	> 100	> 100		> 100	> 100	> 100	> 100										
C/C(=N\NC(=O)c1ccncc1)c1ccc(O)cc1O		> 100	> 100	88.5	> 100	> 100	32.6	> 100	> 100	> 100		3.93	7.68	4.06	5.84	8.59	3.4	4.16	5.29	2.56
COc1ccc(Nc2ncccc2C(=O)NCc2cn(Cc3cccc(Oc4ccccc4)c3)nn2)cc1	> 100	> 100	> 100	> 100	> 100	> 100	> 100		> 100	> 100	3.8	5.07	3.86	4.82	5.59	3.43	2.66		3.55	4.16
CCC(/C(=N\Nc1c(Cl)cc(Cl)cc1Cl)c1ccccc1)n1ccnc1C (configuration not stated)	24.8	35.9	35.7	28.3	25.6	26.8	14.6		28.5											
O=c1cccc(C#CC#C/C=C/CO)o1		6.47	> 24.9	4.7	> 27.5	4.34	> 100	> 100	10.7	4.14		2.08	3.3	2.07	3.72	1.64	3.17	> 100	3.06	2.77
O=C(c1ccc2c3c(ccc(C(=O)C(F)(F)F)c13)CC2)C(F)(F)F	> 100	> 100	> 100	> 100	> 100	> 100		> 100	> 100	> 100										
CC([O-])C(=O)[O-].NCC1CCC1CN.[Pt+4] (configuration not stated)	> 10	> 10	> 10	> 10	> 10	> 10	> 10		> 10	> 10	> 10	> 10	> 10	> 10	> 10	> 10	> 10		> 10	> 10
CSc1ccc2c(cc1=O)[C@@H](NC(=O)c1ccc(F)cc1)CCc1cc(O)c(O)c(O)c1-2	> 100	> 100	> 100	> 100	> 100	> 100	> 100		> 100	> 100										
